Results as given in patent publication US8114400B2, “Aza-bicyclic compounds and their use as stimulators of soluble guanylate cyclase” (Bayer Pharma Aktiengesellschaft, priority 2006, dated 2012).

Test system: aorta rings
Assay: Vasorelaxant effect in vitro (phenylephrine-contracted rabbit aorta rings)
Parameters: species or system Rabbits
Conditions: Oryctolagus cuniculus, contraction induced by phenylephrine, 37° C., 0.1% DMSO, read-out: IC50 (concentration necessary to reduce the level of contraction by 50%)
Description: Rabbits are stunned by a blow to the back of the neck and are exsanguinated. The aorta is removed, freed of adherent tissue, divided into rings 1.5 mm wide and placed singly in 5 ml organ baths with carbogen-gassed Krebs-Henseleit solution of the following composition (in each case mM): NaCl: 119; KCl: 4.8; CaCl2×2H2O: 1; MgSO4×7H2O: 1.4; KH2PO4: 1.2; NaHCO3: 25; glucose: 10, under an initial tension at 37° C. The force of contraction is detected with Statham UC2 cells, amplified and digitized via A/D converters (DAS-1802 HC, Keithley Instruments Munich), and recorded in parallel on chart recorders. A contraction is induced by adding phenylephrine to the bath cumulatively in increasing concentration. After several control cycles, the substance to be investigated is added in each further run in increasing dosage each time, and the level of contraction is compared with the level of contraction achieved in the last preceding run. The concentration necessary to reduce the level of contraction by 50% (IC50) is calculated therefrom. The standard application volume is 5 μl, and the DMSO content in the bath solution corresponds to 0.1%.

IC50: 6.2 µM
Structure (SMILES): Nc1nc(N)nc(-c2nn(Cc3ccccc3F)c3nccn23)n1 [Example 1, 6-[1-(2-Fluorobenzyl)-1H-imidazo[2,1-c][1,2,4]triazol-3-yl]-1,3,5-triazine-2,4-diamine]
